In patent US7517889B2, “2,6-substituted-4-monosubstitutedamino-pyrimidine as prostaglandin D2 receptor antagonists” (Aventis Pharmaceuticals, Inc., priority 2004, dated 2009):
Structures can show the parent of a compound that is named as a salt.

Each compound was assayed against T1, DP receptor (Homo sapiens, UniProt Q13258) (assay: SPA cAMP assay in human LS174 T cells (human DP functional assay)). Details: inhibition of PGD2 (15 nM final) stimulated cAMP, LS174T cells expressing endogenous DP receptor.
T1 construct: the human cell line LS174T, which expresses the endogenous DP receptor; endogenous in cells; host or cells: LS174T human cell line
T1 sequence (Q13258 1-359): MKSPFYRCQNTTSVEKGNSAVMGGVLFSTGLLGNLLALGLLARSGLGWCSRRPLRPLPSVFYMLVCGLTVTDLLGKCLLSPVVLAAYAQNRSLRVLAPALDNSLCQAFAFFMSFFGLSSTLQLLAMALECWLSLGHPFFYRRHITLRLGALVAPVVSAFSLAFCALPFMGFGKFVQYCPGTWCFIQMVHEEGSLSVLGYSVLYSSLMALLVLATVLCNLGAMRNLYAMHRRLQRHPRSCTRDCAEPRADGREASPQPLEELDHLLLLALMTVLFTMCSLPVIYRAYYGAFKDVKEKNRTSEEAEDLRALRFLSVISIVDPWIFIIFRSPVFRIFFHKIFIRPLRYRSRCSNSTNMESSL
Type: cell-based
Description: The inhibitory effects of the compounds according to the invention are assessed in a human DP functional assay. A cAMP assay is employed using the human cell line LS174T, which expresses the endogenous DP receptor.
Protocol for SPA cAMP Assay in Human LS174 T Cells
• 1) Add equal volumes of tracer, antiserum and SPA anti-rabbit reagent to a bottle, ensuring that a sufficient volume of this mixture is prepared for the desired number of wells (150 μL/well). • 2) Mix thoroughly. • 3) This immunoreagent solution should be freshly prepared before each assay and not re-used.
Add 50 μL of […] IBMX into 100 mL PBS to make a final concentration of 100 μM and sonicate at 30° C. for 20 minutes.
Before each assay, it is freshly prepared. Add 3 μL of 10 mM stock solution to 20 mL DMSO, mix it thoroughly, and transfer 10 mL to 40 mL PBS.
Compound dilution is carried out in Biomex 2000 (Beckman) using Method 1_cAMP DP 11 points.
5 μL of each compound from the 10 mM stock compound plates is transferred to the wells of a 96-well plate respectively as below.
Fill the plate with 45 μL of DMSO except column 7 is filled with 28 μL DMSO. Pipette column 1 thoroughly, and transfer 12 μL into column 7 parallel. Perform 1:10 serial dilution from column 1 to column 6 and from column 7 to column 11 by transfer 5 μL to 45 μL DMSO to make following concentrations:
Fill a new 96-well plate with 247.5 μL of compound dilution buffer. Transfer 2.5 μL of serially diluted compounds from above plate to the new plate (1:100 dilution) as following:
Cell Growth • 1. […] Remove growth medium from cells. Cells in T165 flask are washed twice with 4 mL Trypsin followed by incubation at 37° C. and 5% CO2 for 3 minutes. • 4. Add 10 mL of medium and pipette thoroughly to separate the cells and count the cells. • 5. […] Assay Procedure Day 1 • Seed 45,000 cells/well in 200 μL medium in 96-well plates. Incubate the cell plate at 37° C., 5% CO2 and 95% humidity overnight. Day 2 • 1. Perform compound dilution. • 2. Prepare assay buffer, lysis buffer 1 & 2, PGD2 and standard. • 3. Aspirate media from the cells and add 100 μL of compound solution using Zymark Sciclone-ALH/FD protocol cAMP DP. • 4. Incubate the cells at 37° C., 5% CO2 and 95% humidity for 15 minutes. • 5. […] Aspirate media from the cells and add 50 μL of lysis buffer 1 using Zymark protocol cAMP DP lysis, and incubate at room temperature with shaking for 30 minutes. • 7. Add 150 μL immunoreagent to all wells (a total volume of 200 μL/well). • 8. Seal the plates and shake for 2 minutes, put into the chamber of the Wallac microtitre plate μ scintillation counter for 16 hours. […] Data Processing Set up standard curve of cAMP versus CPM.
The cAMP concentrations (pmol/mL) of unknown samples are calculated from a standard curve of cAMP versus CPM. % inhibition is calculated using the following formula: […]

| IC50 [nM] | Compound |
| --- | --- |
| 5 | COc1ccc(CCNc2cc(-c3cccc(C(C)=O)c3)nc(OC)n2)cc1 [Example 35(h), 1-(3-{2-Methoxy-6-[2-(4-methoxy-phenyl)-ethylamino]-pyrimidin-4-yl}-phenyl)-ethanone] |
| 548 | COc1ccc(C[C@H](Nc2cc(-c3cccc(OC)c3)nc(OC)n2)C(=O)O)cc1 [Example 43(n), (2S)-2-[2-Methoxy-6-(3-methoxy-phenyl)-pyrimidin-4-ylamino]-3-(4-methoxy-phenyl)-propionic acid] |
| 14 | COC(=O)Cn1cc(-c2cc(NCCc3c(F)cccc3Cl)nc(OC)n2)ccc1=O [Example 22(d), (5-{6-[2-(2-Chloro-6-fluoro-phenyl)-ethylamino]-2-methoxy-pyrimidin-4-yl}-2-oxo-2H-pyridin-1-yl)-acetic acid methyl ester] |
| 7 | COc1ccc(CCNc2cc(-c3ccc4[nH]c(=O)oc4c3)nc(OC)n2)cc1 [Example 14(c), 6-{2-Methoxy-6-[2-(4-methoxy-phenyl)-ethylamino]-pyrimidin-4-yl}-3H-benzooxazol-2-one] |
| 0.8 | COc1ccc(CCNc2cc(-c3ccc(/C(C)=N\O)s3)nc(OC)n2)cc1 [Example 26(e), 1-(5-{2-Methoxy-6-[2-(4-methoxy-phenyl)-ethylamino]-pyrimidin-4-yl}-thiophen-2-yl)-ethanone oxime] |
| 2.4 | COc1nc(NCCc2c(F)cccc2Cl)cc(-c2cccc(CO)c2)n1 [Example 9(d), (3-{6-[2-(2-chloro-6-fluoro-phenyl)-ethylamino]-2-methoxy-pyrimidin-4-yl}-phenyl)-methanol] |
| 6730 | COc1ccc(CCNc2cc(-c3ccc(OC)c(OC)c3)nc(OC(C)C)n2)cc1OC [Example 17(a), [2-(3,4-Dimethoxy-phenyl)-ethyl]-[6-(3,4-dimethoxy-phenyl)-2-isopropoxy-pyrimidin-4-yl]-amine] |
| 4 | CCOC(=O)OC(C)OC(=O)C(C)(C)c1cccc(-c2cc(NCCc3ccc(Cl)cc3Cl)nc(OC)n2)c1 (stereo not shown) [Example 50, 2-(3-{6-[2-(2,4-Dichloro-phenyl)-ethylamino]-2-methoxy-pyrimidin-4-yl}-phenyl)-2-methyl-propionic acid 1-ethoxycarbonyloxy-ethyl ester hydrochloride] |
| 2.3 | COc1ccc(CCNc2cc(-c3ccc(-c4cnco4)s3)nc(OC)n2)cc1 [Example 11(a), [2-Methoxy-6-(5-oxazol-5-yl-thiophen-2-yl)-pyrimidin-4-yl]-[2-(4-methoxy-phenyl)-ethyl]-amine] |
| 0.55 | COc1ccc(CCNc2cc(-c3ccc(CO)s3)nc(OC)n2)cc1 [Example 9(a), (5-{2-Methoxy-6-[2-(4-methoxy-phenyl)-ethylamino]-pyrimidin-4-yl}-thiophen-2-yl)-methanol] |
| 0.02 | COc1nc(NCCc2ccc(Cl)cc2Cl)cc(-c2cccc(C(F)(F)C(=O)O)c2)n1 [Example 81(a), (3-{6-[2-(2,4-Dichloro-phenyl)-ethylamino]-2-methoxy-pyrimidin-4-yl}-phenyl)-difluoro-acetic acid] |
| 0.5 | COc1nc(NCCc2ccc(Cl)cc2Cl)cc(-c2cc(C(C)(C)C(=O)O)ccc2F)n1 [Example 99, 2-(3-{6-[2-(2,4-Dichloro-phenyl)-ethylamino]-2-methoxy-pyrimidin-4-yl}-4-fluoro-phenyl)-2-methyl-propionic acid hydrochloride] |
| 2 | COc1nc(NCCc2ccc(Cl)cc2Cl)cc(-c2cccc(C(C)(C)C(=O)NS(=O)(=O)Cc3ccccc3)c2)n1 [Example 95(b), N-[2-(3-{6-[2-(2,4-Dichloro-phenyl)-ethylamino]-2-methoxy-pyrimidin-4-yl}-phenyl)-2-methyl-propionyl]-C-phenyl-methanesulfonamide] |

Continued, compound first:

| Compound | IC50 [nM] |
| --- | --- |
| COc1nc(NCCc2ccc(Cl)cc2Cl)cc(-c2cccc(C(C)(C)C(=O)Nc3nnn[nH]3)c2)n1 [Example 95(e), 2-(3-{6-[2-(2,4-Dichloro-phenyl)-ethylamino]-2-methoxy-pyrimidin-4-yl}-phenyl)-N-(1H-tetrazol-5-yl)-isobutyramide] | < 1 |
| COc1ccc(CCNc2cc(-c3ccc(C)s3)nc(OC)n2)cc1 [Example 8(e), [2-Methoxy-6-(5-methyl-thiophen-2-yl)-pyrimidin-4-yl]-[2-(4-methoxy-phenyl)-ethyl]-amine] | 8.2 |
| COc1ccc(CNc2cc(-c3cccc(OC)c3)nc(OC)n2)cc1 [Example 43(k), (4-Methoxy-benzyl-[2-methoxy-6-(3-methoxy-phenyl)-pyrimidin-4-yl]-amine hydrochloride] | 1070 |
| COc1ccc(CCNc2cc(OCc3ccccc3OC)nc(OC)n2)cc1 [Example (48), [2-Methoxy-6-(2-methoxy-benzyloxy)-pyrimidin-4-yl]-[2-(4-methoxy-phenyl)-ethyl]-amine hydrochloride] | 12 |
| CCNS(=O)(=O)c1cccc(-c2cc(NCCc3ccc(OC)cc3)nc(OC)n2)c1 [Example 4(b), N-Ethyl-3-{2-methoxy-6-[2-(4-methoxy-phenyl)-ethylamino]-pyrimidin-4-yl}-benzenesulfonamide] | 6.6 |
| COc1ccc(CCNc2cc(-c3ccc(C(C)=O)s3)nc(OC)n2)cc1 [Example 35(m), 1-(5-{2-Methoxy-6-[2-(4-methoxy-phenyl)-ethylamino]-pyrimidin-4-yl}-thiophen-2-yl)-ethanone] | 3.8 |
| COc1nc(NCCc2ccc(Cl)cc2Cl)cc(-c2ccc(Cl)c(C(C)(C)O)c2)n1 [Example 98, 2-(2-Chloro-5-{6-[2-(2,4-dichloro-phenyl)-ethylamino]-2-methoxy-pyrimidin-4-yl}-phenyl)-propan-2-ol] | 110 |
| COc1cccc(-c2cc(NCCCc3ccccc3)nc(OC)n2)c1 [Example 43(l), [2-Methoxy-6-(3-methoxy-phenyl)-pyrimidin-4-yl]-(3-phenyl-propyl)-amine hydrochloride] | 1690 |
| COc1ccc(CCNc2cc(-c3ccc(N(C)C)cc3)nc(OC)n2)cc1 [Example 10(I)] | 42 |
| COc1ccc(CCNc2cc(-c3ccc[n+]([O-])c3)nc(OC)n2)cc1 [Example 21(a), [2-Methoxy-6-(1-oxy-pyridin-3-yl)-pyrimidin-4-yl]-[2-(4-methoxy-phenyl)-ethyl]-amine] | 149 |
| COc1ccc(CCNc2cc(-c3ccc(N4CCOCC4)cc3)nc(OC)n2)cc1 [Example 10(k), [2-Methoxy-6-(4-morpholin-4-yl-phenyl)-pyrimidin-4-yl]-[2-(4-methoxy-phenyl)-ethyl]-amine] | 13 |
| COc1ccc(CCNc2cc(-c3ccc4[nH]cnc4c3)nc(OC)n2)cc1 [Example 14(a), [6-(1H-Benzoimidazol-5-yl)-2-methoxy-pyrimidin-4-yl]-[2-(4-methoxy-phenyl)-ethyl]-amine] | 2.7 |
| COc1ccc(CCNc2cc(-c3ccc(F)c(C(=O)O)c3)nc(OC)n2)cc1 [Example 20(a), 2-Fluoro-5-{2-methoxy-6-[2-(4-methoxy-phenyl)-ethylamino]-pyrimidin-4-yl}-benzoic acid] | 0.4 |
| COc1ccc(CCNc2cc(-c3ccc4[nH]ccc4c3)nc(OC)n2)cc1 [Example 10(c), [6-(1H-Indol-5-yl)-2-methoxy-pyrimidin-4-yl]-[2-(4-methoxy-phenyl)-ethyl]-amine] | 0.7 |
| COCc1nc(NCCc2ccc(Cl)cc2Cl)cc(-c2cccc(C(C)(C)C(=O)O)c2)n1 [Example 85, 2-(3-{6-[2-(2,4-Dichloro-phenyl)-ethylamino]-2-methoxymethyl-pyrimidin-4-yl}-phenyl)-2-methyl-propionic acid] | 2.7 |
